# Reference: patent US20240041813A1, “VERY-LONG-CHAIN POLYUNSATURATED FATTY ACIDS, ELOVANOID HYDROXYLATED DERIVATIVES, AND METHODS OF USE” (priority 2020, published 2024)
# Entries after “also recorded” stand apart in the source; their conditions may differ.
# B1: IFNε (protein, UniProt Q86WN2 22-208, looked up)
# Interferon epsilon: LDLKLIIFQQRQVNQESLKLLNKLQTLSIQQCLPHRKNFLLPQKSLSPQQYQKGHTLAILHEMLQQIFSLFRANISLDGWEENHTEKFLIQLHQQLEYLEALMGLEAEKLSGTLGSDNLRLQVKMYFRRIHDYLENQDYSTCAWAIVQVEISRCLFFVFSLTEKLSKQGRPLNDMKQELTTEFRSPR
# B2: IFNγ (protein, UniProt P01579 24-161, looked up)
# Interferon gamma: QDPYVKEAENLKKYFNAGHSDVADNGTLFLGILKNWKEESDRKIMQSQIVSFYFKLFKNFKDDQSIQKSVETIKEDMNVKFFNSNKKKRDDFEKLTNYSVTDLNVQRKAIHELIQVMAELSPAAKTGKRKRSQMLFRG
# Experiments:
# [1] = system: human corneal epithelial cells (HCEC); assay: HCEC challenged with IFNγ: SASP secretome (β-Gal staining); format: cell-based; conditions: HCEC 24 h after IFN-γ challenge
# ACE2 [2] = assay: Rat cornea alkali burn: ACE2 abundance by Jess capillary-based Western Blot; format: in vivo; conditions: rat cornea after alkali burn, eye drops 20 μl/eye, 3 times/day for 14 days, day 14
# Excerpt: Sprague-Dawley rats (8-week-old male) were obtained from Charles River Laboratories (Wilmington, MA, USA) and kept at the Animal Care of the Neuroscience Center of Excellence, Louisiana State University Health (LSUH; New Orleans, LA, USA). All animals were handled in compliance with the guidelines of the ARVO Statement for the Use of Animals in Ophthalmic and Vision Research, and the experimental protocol was approved by the Institutional Animal Care and Use Committee (IACUC) at LSUH.
# (§1) The rats were anesthetized by intraperitoneal injection of Ketamine (50-100 mg/kg) plus xylazine (5-10 mg/kg). A 4 mm diameter filter paper soaked in 1 N NaOH was placed on the central cornea of the right eye for 45 seconds, and then the eye was thoroughly washed with […] of saline. After injury, the rats were randomly divided into five treatment groups: vehicle; lipoxin A4 (LXA4) from Cayman Chemical (Ann Arbor, MI, USA); R,R Resolvin D6 isomer (RvD6i), R,R neuroprotection D (NPD1), and elovanoid (ELV)-N32. All lipid solutions were prepared at the final concentration of […] using PBS with the minimal contamination of ethanol by evaporating the ethanol and immediately dissolve the lipids in PBS, then vortex well for 2 min. Topical administration (20 μl) was done 3×/day for 14 days. The experiments were double-blinded with the lipid mediators coded during the whole experiments. At the end of the study, when all data was collected, the code was opened.
# Briefly, samples were lysed with RIPA buffer containing a protease inhibitor cocktail (Sigma, Cat. P8340). Cell debris was removed after 10 min centrifugation at 16,000×g. Protein concentration was determined by BCA assay (Thermo Fisher Scientific, Cat. 23225) and 1 μg used/reaction. Fluorescent Master Mix was mixed with 40 mM DTT, and the mixture was added to each sample to provide a denaturing and reducing environment. Samples were heated at 95° C./5 min, and 3 μL of each sample were loaded. The 12-230 kDa cartridge (Protein Simple—#SM-W004) was used. Primary antibodies were diluted in antibody diluent 2 buffer (Protein Simple, #042-203) while the working solution of secondary antibodies was provided by the company (Protein Simple, #042-206). Then, the filled plate was spin-down for 10 min at 1,000×g to remove bubbles and plate, and capillaries were loaded into the Jess machine. For data analysis, the area of spectra that matched the molecular weight of the target protein was used. To reduce the coefficient variant, we analyzed the GAPDH for each capillary. The ratio of the targeted protein to GAPDH was used for statistical comparisons. For visualization, the artificial lanes generated from spectra volume was used.
# Alexa 594-RBD [3] = format: in vivo; conditions: rat cornea after alkali burn; 14 days treatment; Alexa 594-RBD 1 μg/eye, 3 times at day 15, examined a day later
# Cdkn2a (p16INK4a) = assay: HCEC challenged with IFNγ: Cdkn2a gene expression; format: cell-based, human; conditions: IFNγ 100 ng/ml
# Excerpt: All experiments with human corneal epithelial cells were approved by the Institutional Review Board of LSUHNO and conducted in accordance with NIH guidelines. HCEC were kept frozen in the laboratory at passage 2544. Cells were maintained in keratinocyte growth (KGM) medium containing the keratinocyte basal medium (KBM) (Lonza: CC-3101) supplemented with bovine pituitary extract (BPE), hEGF, Insulin, Hydrocortisone and Gentamicin Sulfate-Amphotericin (GA-1000) (Lonza, Cat. CC-4131). For all experiments, cells were seeded at 30,000 cells/cm2.
# (§2) For screening the stimulation of receptor ACE2 by cytokines, the HCEC were cultured with KGM until 50-60% confluence. Then, changed to KBM containing IL-1β, -2, -6 and 8, IFN-α, -ε, and -γ or TNFα at 1, 10 or 100 ng/ml. The cells were harvested after 6 hours and analyze for the gene expression of Ace2. In other experiments, HCEC were stimulated with IFNγ, and thereafter, lipid mediators were added. For the Alexa 594-conjugated RBD binding, IFNγ was used as a cytokine trigger. At 12 hours after cytokine exposure and lipid mediator treatments, […] of labeled RBD was added to the medium. The evaluation of RBD binding was conducted 24 hours after.
# Quantitative PCR was performed with the Biomark HD system (Fluidigm, San Francisco, CA, USA). Briefly, 200 ng of RNA was reverse-transcribed using iScript Reverse Transcription Supermix (Bio-Rad), and the cDNA was pre-amplified using the PreAmp Master Mix (PN 100-5580; Fluidigm). The cDNA was then subjected to Exonuclease I treatment and diluted 5 times in TE Buffer. The qPCR reaction mixture and primer reaction mixture were made and loaded into the Biomark 96.96 IFC™ (Integrated Fluidic Circuit). The enzyme reaction was mixed using Juno™ Controller (Fluidigm) and run using the cycling program of (i) 70° C. for 40 minutes followed by 60° C. for 30 seconds, (ii) hot start for 1 minute at 95° C., (iii) 30 cycles of denaturation at 96° C. for 5 seconds, and annealing at 60° C. for 20 seconds, and (iv) melting curves between 60° C. and 95° C. with 1° C. increments/3 seconds. The Ct value of target genes was normalized to the house-keeping genes Gapdh, Hprt1, and Tfrc before normalized to the vehicle group. Relative fold changes from the ΔΔCT calculation was used to make the graph.
# Alexa 594-RBD [4] = assay: HCEC challenged with IFNγ: Alexa 594-RBD binding (unbiased imaging, Imaris); format: cell-based, human; conditions: IFNγ 100 ng/ml and lipid mediators 200 nM for 12 h, images 24 h after RBD
# Method: as §2
# Twenty-four hours after Alexa 594-RBD was added to the HCEC, the cells were washed with PBS (3×/5 min) and fixed with 4% paraformaldehyde for 30 minutes at RT. The HCEC were washed 2× with PBS and stained with Hoechst 33342 Solution (ThermoFisher Scientific, Cat. 62249) for 30 minutes at RT. Next, the HCEC were washed 2× with PBS before imaging. For unbiased data collection, 7 designated areas were defined in each well (FIG. 63) and captured with an Olympus FV3000 confocal laser scanning microscopy under “Multi Area Time Lapse” (MATL) mode. All images were acquired with the same parameters and Z-section range, converted and inputted in the Imaris software version 9.5.1. The threshold for the control images was defined by the HCEC without Alexa 594-conjugated RBD of S protein and using it as a threshold filter for the Imaris batch image processing function. The sum of total intensity for each image was used to evaluate the binding efficiency.
# human alveolar cells = assay: Fate of added VLC-PUFAs in human bronchiole/alveoli cell cultures (LC-MS/MS); conditions: human lung cell cultures; paired with FA18:1 or FA18:0
# [5] = system: receptor-binding domain (RBD) of the SARS-CoV-2 spike; format: cell-based, human
# ACE2 [6] = assay: Cytokine screening for stimulation of Ace2 in HCEC (dd-PCR); format: cell-based, human; conditions: cytokine at 1, 10, and 100 ng/mL, 6 hours
# ACE2 [7] = assay: Rat cornea alkali burn: corneal RNA-seq, Ace2 gene expression; format: in vivo; conditions: rat cornea after alkali burn, eye drops 3 times/day for 14 days, RNA-seq day 14
# Method: as §1
# (§3) Injured corneas (n=5/condition) were harvested and homogenized with TRIzol (Thermo Fisher Scientific) on ice with a glass Dounce homogenizer. RNA sequencing was performed as described^14. Briefly, after mRNA extraction and determination of purity, 8 ng of total RNA was reverse transcribed, and total cDNAs were amplified using ISPCR primer, and the library was made with the Nextera XT DNA library preparation kit (Illumina, San Diego, CA, USA). The libraries were pooled with the same molarity and sequenced using the NextSeq 500/550 High Output Kit v2 (75 cycles, Illumina). After demultiplexing, RNA-seq data were aligned to the Rattus Norvegicus reference genome (.ensembl.org/pub/release-98/fasta/rattus_norvegicus/dna/) using the Subread package v2.0.1 alignment function39. The BAM files for sequencing data alignment were counted using featureCounts function of Subread tool^40 using the macOS Catalina. The raw count data were subjected to differential gene expression analysis using DESeq2 package for R^41 with the vehicle group as reference. The adjusted p-values were named as the false discover rate (FDR).
# injured rat cornea = assay: Rat cornea alkali burn: corneal RNA-seq, cytokine storm, NFkB/inflammation, senescence, integrin and protease genes; format: in vivo; conditions: for availability of ACE2, TMPRSS2 and Furin increased after alkali burn: rat cornea after alkali burn, RNA-seq, ACE2 and Furin confirmed by JESS (Example 15)
# Method: as §1, §3
molecule,measurement,setting,value
CC/C=C\C[C@H](O)\C=C/C=C/C=C/[C@H](O)C/C=C\C/C=C\CCC(=O)O [NPD1],senescence programming genes and SASP secretome activation (β-Gal),[1],blocked
same,"ACE2 abundance (protein, normalized to GAPDH)",ACE2 [2],failed to decrease; also recorded: no effect
same,binding of Alexa 594-RBD to injured cornea,Alexa 594-RBD [3],fails; also recorded: did not have an effect; also recorded: failed to decrease
same,Cdkn2a activation,Cdkn2a (p16INK4a),decrease
same,IFNγ-stimulated Alexa 594-RBD binding,Alexa 594-RBD [4],decrease; also recorded: attenuated
"CC/C=C\C/C=C\C/C=C\C/C=C\C/C=C\C/C=C\CCCCCCCCCCCCCCC(=O)O [34:6, (16Z,19Z,22Z,25Z,28Z,31Z)-tetratriaconta-16,19,22,25,28,31-hexaenoic acid]",incorporation in phosphatidylcholine molecular species,human alveolar cells,incorporated
same,RBD protein internalization (RBD located below the membrane line),[5],decrease; also recorded: reduces
TNFα,Ace2 expression (dd-PCR),ACE2 [6],no significant increase
same,internalized RBD signal,[5],increased
"CC/C=C\C[C@H](O)/C=C/C=C\C/C=C\C/C=C\C=C\[C@@H](O)CCC(=O)O [RvD6, reference compound]",IFNγ-stimulated Alexa 594-RBD binding,Alexa 594-RBD [4],decrease
"CC/C=C\C/C=C\C/C=C\C/C=C\C/C=C\C/C=C\CCCCCCCCCCCCC(=O)O [32:6, (14Z,17Z,20Z,23Z,26Z,29Z)-dotriaconta-14,17,20,23,26,29-hexaenoic acid]",incorporation in phosphatidylcholine molecular species,human alveolar cells,incorporated
same,RBD protein internalization (RBD located below the membrane line),[5],decrease; also recorded: reduces
IL1β,Ace2 expression (dd-PCR),ACE2 [6],no significant increase
same,internalized RBD signal,[5],increased
"CCCCC[C@@H](O)/C=C/C=C\C=C\C=C\[C@@H](O)[C@@H](O)CCCC(=O)O [LXA4, reference compound]",senescence programming genes and SASP secretome activation (β-Gal),[1],not
same,"ACE2 abundance (protein, normalized to GAPDH)",ACE2 [2],decrease
same,"ACE2 abundance (protein, normalized to GAPDH)",ACE2 [2]; listed as Lipoxin A4,downregulates
same,Ace2 gene expression levels,ACE2 [7],decrease
same,Ace2 gene expression levels,ACE2 [7]; listed as Lipoxin A4,downregulates
same,binding of Alexa 594-RBD to injured cornea,Alexa 594-RBD [3],decrease; also recorded: counteracted; also recorded: significant effect
same,"availability of ACE2, TMPRSS2 and Furin increased after alkali burn",injured rat cornea,remarkable blocked
same,"availability of ACE2, TMPRSS2 and Furin increased after alkali burn",injured rat cornea; listed as Lipoxin A4,downregulates
same,Il6 and Vegfa expression,"injured rat cornea; rat cornea, RNA-seq 14 days after injury",reduced
same,Cdkn2a activation,Cdkn2a (p16INK4a),does not
IL6,Ace2 expression (dd-PCR),ACE2 [6],no significant increase
"CC/C=C\C[C@H](O)\C=C/C=C/C=C/[C@H](O)C/C=C\C/C=C\CCCCCCCCCCCCC(=O)OC [ELV32 methyl ester, methyl (14Z,17Z,20R,21E,23E,25Z,27S,29Z)-20,27-dihydroxydotriaconta-14,17,21,23,25,29-hexaenoate]",RBD of the SARS-CoV-2 spike entrance / internalized RBD,[5],downregulated
"CC/C=C\C[C@H](O)C#C/C=C/C=C/[C@H](O)C/C=C\C/C=C\CCCCCCCCCCCCC(=O)OC [ELV 32(AC) acetylenic methyl ester, methyl (14Z,17Z,20R,21E,23E,27S,29Z)-20,27-dihydroxydotriaconta-14,17,21,23,29-pentaen-25-ynoate]",RBD of the SARS-CoV-2 spike entrance / internalized RBD,[5],downregulated
IL8,Ace2 expression (dd-PCR),ACE2 [6],no significant increase
B1,Ace2 expression (dd-PCR),ACE2 [6],no significant increase
B2,Ace2 expression (dd-PCR),ACE2 [6],activate
